Mass density and speed of sound data for six molecules are collected here from the NIST ThermoML archive (doi:10.1016/j.fluid.2014.01.019).

The conditions of this series: Liquid; for mass density: 101.33 kPa, Vibrating tube method; for speed of sound: 101 kPa, Frequency=2 MHz, Linear variable-path acoustic interferometer.

± gives the expanded uncertainty stated by the source.

One may read the mass density as mass per unit of volume. What is called speed of sound is how fast a sound wave travels through the sample.

For the molecule `Cc1ccc(Cl)cc1` [4-chlorotoluene], the mass density (298.15 K) was determined as 1064.93 ± 0.16 kg/m3, the mass density (303.15 K) amounted to 1059.56 ± 0.16 kg/m3, the mass density (308.15 K) is on record as 1054.27 ± 0.15 kg/m3 and the mass density (313.15 K) was determined as 1049.29 ± 0.15 kg/m3. The speed of sound runs as follows: (303.15 K) 1274 ± 8 m/s; (313.15 K) 1237 ± 8 m/s.

For `Cc1ccccc1Cl` [2-chlorotoluene], the mass density reads like this: (298.15 K) 1076.47 ± 0.15 kg/m3; (303.15 K) 1072.86 ± 0.15 kg/m3; (308.15 K) 1068.21 ± 0.15 kg/m3; (313.15 K) 1064.01 ± 0.15 kg/m3. For the same molecule, the speed of sound is listed as 1285 ± 8 m/s (303.15 K) and 1248 ± 8 m/s (313.15 K).

For `Cc1ccccc1[N+](=O)[O-]` [2-nitrotoluene], the mass density (298.15 K) amounted to 1159.6 ± 0.19 kg/m3, the mass density (303.15 K) amounted to 1153.29 ± 0.18 kg/m3, the mass density (308.15 K) is 1149.78 ± 0.18 kg/m3 and the mass density (313.15 K) is given as 1144.91 ± 0.18 kg/m3. The speed of sound stood at 1439 ± 9 m/s (303.15 K) and 1403 ± 9 m/s (313.15 K).

Take `OCc1ccccc1` [benzenemethanol]: the mass density is 1041.44 ± 0.14 kg/m3 (298.15 K), 1037.67 ± 0.14 kg/m3 (303.15 K), 1033.75 ± 0.14 kg/m3 (308.15 K) and 1029.91 ± 0.14 kg/m3 (313.15 K). Further, the speed of sound turned out to be 1514 ± 9 m/s (303.15 K) and 1485 ± 9 m/s (313.15 K).

As to `Cc1cccc(Cl)c1` [3-chlorotoluene], the mass density by setting is: (298.15 K) 1067.25 ± 0.15 kg/m3; (303.15 K) 1062.79 ± 0.15 kg/m3; (308.15 K) 1058.29 ± 0.15 kg/m3; (313.15 K) 1053.49 ± 0.15 kg/m3. Also, the speed of sound stood at 1281 ± 8 m/s (303.15 K) and 1247 ± 8 m/s (313.15 K).

On to `Cc1cccc([N+](=O)[O-])c1` [3-nitrotoluene], for which the mass density reads like this: (298.15 K) 1152.23 ± 0.18 kg/m3; (303.15 K) 1147.67 ± 0.18 kg/m3; (308.15 K) 1142.67 ± 0.18 kg/m3; (313.15 K) 1137.98 ± 0.18 kg/m3. The speed of sound (303.15 K) is 1442 ± 9 m/s and the speed of sound (313.15 K) is recorded as 1409 ± 9 m/s.
